Data from paper PMC11198849, “Expression and purification of human neutrophil proteinase 3 from insect cells and characterization of ligand binding” (PLOS ONE, 2024).
Several values for one entry are separate records, joined by “and”; a condition that tells them apart may be missing. Equal values may be shown once. Read-outs that look alike come from different tables or passages of the source.

Key:
rPR3 [1] = biological target: T1, rPR3 (Homo sapiens, UniProt P24158); assay: SPR binding assay on biotinylated rPR3; conditions: for SPR binding behaviour towards rPR3 (in words): sensorgrams Fig 5
T1 construct: TEV cleavage site (C); 6x His-tag (C); made in house; host or cells: Spodoptera frugiperda Sf9 (baculovirus), secreted
T1 sequence (P24158 28-248 limits assumed): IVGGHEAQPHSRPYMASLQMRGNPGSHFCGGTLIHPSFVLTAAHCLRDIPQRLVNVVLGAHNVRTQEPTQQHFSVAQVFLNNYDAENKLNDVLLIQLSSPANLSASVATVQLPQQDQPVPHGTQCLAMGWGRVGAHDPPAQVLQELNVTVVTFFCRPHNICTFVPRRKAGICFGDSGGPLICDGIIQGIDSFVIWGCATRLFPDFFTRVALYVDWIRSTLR

hNE = biological target: T2, hNE (Homo sapiens, UniProt P08246); assay: Fluorescence-based enzymatic activity assay with hNE (MeOSuc-AAPV-AMC substrate); assay type: biochemical; conditions: for %Relative activity of enzyme: hNE, Rep1-Rep3
T2 construct: Enzymes purified from human neutrophiles (hPR3 and hNE); purchased Athens Research and Technology; host or cells: human neutrophils
T2 sequence (P08246 30-247 limits assumed): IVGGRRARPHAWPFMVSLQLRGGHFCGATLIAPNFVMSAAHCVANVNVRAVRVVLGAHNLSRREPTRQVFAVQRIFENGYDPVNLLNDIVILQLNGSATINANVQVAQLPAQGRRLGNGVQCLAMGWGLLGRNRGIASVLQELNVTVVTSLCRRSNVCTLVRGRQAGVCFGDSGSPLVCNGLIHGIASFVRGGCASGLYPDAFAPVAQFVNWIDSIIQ
Procedure: The reaction was started by adding the fluorogenic substrate (MeOSuc-AAPV-AMC) at a final concentration of 5 μM. The fluorescent signal (excitation filter 360, emission filter 460) was read as described above for PR3.
(§1) Data were fitted using nonlinear regression analysis (GraphPad Prism v.9) to determine the IC50 values.

hPR3 = biological target: T3, hPR3 (Homo sapiens, UniProt P24158); assay: Fluorescence-based enzymatic activity assay with hPR3 (FRET peptide Abz-VADnVADYQ-EDDnp); assay type: biochemical
T3 construct: Enzymes purified from human neutrophiles (hPR3 and hNE); purchased Athens Research and Technology; host or cells: human neutrophils
T3 sequence (P24158 28-248 limits assumed): T1 sequence (P24158 28-248 limits assumed)
Procedure: (§2) The reaction was started by adding the FRET peptide (Abz-VADnVADYQ-EDDnp) at a final concentration of 5 μM. The fluorescent signal (excitation filter 320, emission filter 420) was read every 30 s for 30 min at 30°C with a fluorescent plate reader (Tecan Spark) and the enzymatic activity was measured from the initial linear portion of the slope (fluorescent signal/min) of the time-course curve of reaction progress.
as §1

rPR3 [2] = biological target: T1, rPR3; assay: Fluorescence-based enzymatic activity assay with rPR3 (FRET peptide Abz-VADnVADYQ-EDDnp); assay type: biochemical
Procedure: as §2, §1

[3] = biological target: α1-antitrypsin (Homo sapiens) (UniProt P01009); conditions: cited from earlier work
Sequence of α1-antitrypsin (Homo sapiens) (P01009 25-418): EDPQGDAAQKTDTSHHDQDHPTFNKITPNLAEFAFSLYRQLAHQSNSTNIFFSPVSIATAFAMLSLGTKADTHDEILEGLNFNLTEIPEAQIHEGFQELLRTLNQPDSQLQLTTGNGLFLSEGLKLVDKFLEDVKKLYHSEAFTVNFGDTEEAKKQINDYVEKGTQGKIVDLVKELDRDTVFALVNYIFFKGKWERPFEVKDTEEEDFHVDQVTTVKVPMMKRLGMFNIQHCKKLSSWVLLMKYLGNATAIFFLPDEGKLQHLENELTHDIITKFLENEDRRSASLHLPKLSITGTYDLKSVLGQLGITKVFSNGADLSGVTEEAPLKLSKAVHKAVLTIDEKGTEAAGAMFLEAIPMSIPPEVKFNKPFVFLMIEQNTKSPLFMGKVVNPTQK

PR3 = conditions: cited from earlier work
[4] = affinity data, single replicates Rep1-Rep3, read-out: Steady state KD
[5] = steady state, average and SD of triplicates, read-out: Steady state KD
[6] = IC50 replicates Rep1-Rep3, read-out: hPR3 IC50
[7] = mean ± SD (n = 3), read-out: IC50 hPR3
[8] = IC50 replicates Rep1-Rep3, read-out: rPR3 IC50
[9] = mean ± SD (n = 3), read-out: IC50 rPR3

| Molecule | Kd (rPR3 [1]; [4]) | SPR binding behaviour towards rPR3 (in words) (rPR3 [1]) | Kd (rPR3 [1]; [5]) [M] | IC50 (hPR3; [6]) | IC50 (hPR3; [7]) [µM] | IC50 (rPR3 [2]; [8]) | IC50 (rPR3 [2]; [9]) [µM] | other results |
| --- | --- | --- | --- | --- | --- | --- | --- | --- |
| Cc1c(-c2ccnn2C)cc(C(=O)NCc2ccc(S(C)(=O)=O)cn2)c(=O)n1-c1cccc(C(F)(F)F)c1 [Alvelestat] | 1.95e-05 M and 1.26e-05 M and 8.36e-06 M | weak rPR3 binder with fast association and dissociation rates | 1.35e-05 ± 5.6e-06 |  |  |  |  | IC50 (hNE; IC50 replicates Rep1-Rep3): 0.0107 µM and 0.0121 µM and 0.0116 µM; %Relative activity of enzyme (hNE; inhibitor 1.95 nM): 78.8834% and 84.934% and 85.1448%; %Relative activity of enzyme (hNE; inhibitor 3.9 nM): 78.3028% and 76.8727%; %Relative activity of enzyme (hNE; inhibitor 7.8 nM): 61.4733% and 58.7939% and 60.1294%; %Relative activity of enzyme (hNE; inhibitor 15.6 nM): 40.7947% and 40.9606% and 39.7611%; %Relative activity of enzyme (hNE; inhibitor 31.25 nM): 27.1224% and 29.7155% and 27.7611%; %Relative activity of enzyme (hNE; inhibitor 62.5 nM): 15.0503% and 20.2323% and 16.5108%; %Relative activity of enzyme (hNE; inhibitor 125 nM): 9.7027% and 8.522% and 9.4691% |
| CC1=C(C#N)[C@@H](c2ccc(C#N)cc2S(C)(=O)=O)N(C)C(=O)N1c1cccc(C(F)(F)F)c1 [BAY-85-8501] | 2.6e-08 M and 4.4e-08 M and 1.6e-08 M |  | 3e-08 ± 1e-08 | 0.0243 µM and 0.0247 µM and 0.0315 µM | 0.027 ± 0.004 | 0.0677 µM and 0.055 µM and 0.0536 µM | 0.059 ± 0.008 | Kd (rPR3 [1]; 1:1 binding kinetic model, average and SD of triplicates, read-out: KD): 1.4e-08 M; Kd (rPR3 [1]; affinity data, average of Rep1-Rep3, read-out: Steady state KD (M), Average): 2.87e-08 M; Kd (rPR3 [1]; average of Rep1-Rep3, read-out: KD (M), kinetics 1:1, Average): 1.37e-08 M; Kd (rPR3 [1]; single replicates Rep1-Rep3, read-out: KD (M), kinetics 1:1): 1.37e-08 M and 1.09e-08 M and 1.66e-08 M; Ki (rPR3 [2]; Cheng-Prusoff equation, literature Km 27.4 μM, read-out: Ki derived from the IC50 value): 0.05 µM |
| CC(C)(C)C(=O)Oc1ccc(S(=O)(=O)Nc2ccccc2C(=O)NCC(=O)O)cc1 [Sivelestat] |  | hardly dissociated |  | 0.0336 µM and 0.0341 µM and 0.0304 µM | 0.033 ± 0.002 | 0.0358 µM and 0.0295 µM and 0.0301 µM | 0.032 ± 0.004 |  |
| Proteinase 3 (from UniProt P24158) |  |  |  |  |  |  |  | Ki [3]: 0.038 µM |
| α1-antitrypsin: endogenous serine protease inhibitor, also denoted SERPIN; purchased from Sigma-Aldrich |  | hardly dissociated |  |  | 0.015 ± 0.001 |  | 0.014 ± 0.001 | IC50 (hPR3; IC50 replicates Rep1-Rep3, listed as a1-antitrypsin, read-out: hPR3 IC50): 0.0158 µM and 0.0155 µM and 0.0146 µM; IC50 (rPR3 [2]; IC50 replicates Rep1-Rep3, listed as a1-antitrypsin, read-out: rPR3 IC50): 0.0153 µM and 0.0147 µM and 0.0135 µM; first-order rate constant k2 (EI* to irreversible EI) (PR3): 0.04 s⁻¹ |
